Article PMC7549214 (Malaria Journal, 2020)
Like-named read-outs stand apart in the source and are kept apart here.

Columns and labels:
CYP2C9 = CYP2C9 (Homo sapiens, UniProt P11712); assay: CYP inhibition; type: in vitro ADME; details: read-out: CYP inhibition IC50, CYP 2C9
[1] = Single dose pharmacokinetics in SCID mice; type: in vivo; details: female, C.B-17/IcrHsd-Prkdc^scidLyst^bg (SCID), mouse, plasma; infected SCID mice, oral, 50 mg/Kg
Procedure: Female […] mice (n = 3) aged 7-8 weeks and weighing around 20 to 22 g were used for experimentation after a minimum 7 days of acclimation. Male BALB/c mice (n = 3) aged 8-10 weeks and weighing around 20 to 22 g were also used for experimentation after a minimum 7 days of acclimation. […] Feed was offered 2 h post-dose. Under mild isofluorane […], blood samples were collected by retro-orbital route into labelled centrifuge tubes containing K2EDTA anticoagulant at a concentration of 2 mg/mL of blood during the next 24 h post-dose. Collected blood samples were centrifuged at 4000 rpm for 10 min, and harvested plasma samples were stored at - 80 °C until analysis.

[2] = test system: Plasmodium falciparum strain 3D7; assay: In vitro killing profile; type: cell-based; details: 10 × IC50
Procedure: Briefly, the assay used limiting dilution technique to quantify the number of parasites viable after drug treatment. […] Parasites were treated for […]. The drugs used were renewed daily over the entire treatment period. Samples of parasites were taken from the treated culture every 24 h (0, for control of the initial number of parasites, 24, 48, 72, 96, 120 h’ time points). Following this, the procedure was carried out to wash out the drugs, and drug-free parasites were cultured in 96-well plates by adding fresh erythrocytes and new media (RPMI 1640 medium). Three-fold serial dilution was used with the abovementioned samples after removing the drug to quantify the number of viable parasites after treatment. Parasites were cultured in microtitre plates to allow all wells with viable parasites to render detectable parasitaemia. Four independent serial dilutions were carried out with each sample to correct experimental variations. Samples were examined after 21 days of culturing. Additional sampling was done after 28 days to confirm the growth/no growth.

Dd2 = assay: microbe, parasite or virus in culture; type: cell-based; details: Plasmodium falciparum
in vitro [3] = type: in vitro ADME; details: rat, plasma
[4] = test system: P. falciparum Pf3D7^0087/N9; assay: Therapeutic efficacy in SCID mouse model of human falciparum malaria; type: in vivo, Plasmodium falciparum in NODscidIL2Rγ^null mice; details: for Parasitaemia after 4 days of administration: intraperitoneally, vehicle control 8.43%; for Parasitaemia: oral, vehicle-treated group 7.69%, n = 2
Procedure: For the dose–response study, 50 mg of the compound was used in quintuplicate. Chloroquine (Sigma-Aldrich C6628) was used as the standard drug. The volume of 10 mL/kg was used for administration. Briefly, at day 0, in vitro cultures with approximately 2–5% parasitaemia were taken and diluted in culture medium to 2 × 10^7 parasitized erythrocytes per 0.1 ml. This suspension was injected iv into experimental groups and a control group of n = 2 mice. From day 3 to 6 days post-infection, the experimental groups were treated with a single daily dose by the oral (po) route. Other routes, such as intramuscular and subcutaneous, were also tested using the same protocol. The drug concentration was adjusted in a way to administer 10 ml/kg. […] At 7th day post-infection, 2 μl tail blood was taken. The haematocrit was determined by FACS and parasitaemia by microscopy on > 10,000 red blood cells.
The difference of the mean infection rate of the control group (= 100%) to the test group was calculated and expressed as per cent reduction. […] The results were expressed as a reduction of parasitaemia at day 7 in % as compared to the untreated control group. Values are expressed as mean ± SD.

CYP 3A4 = CYP 3A4 (Homo sapiens, UniProt P08684); assay: CYP inhibition; type: in vitro ADME
Sequence of CYP 3A4 (P08684 whole entry, species assumed, canonical isoform): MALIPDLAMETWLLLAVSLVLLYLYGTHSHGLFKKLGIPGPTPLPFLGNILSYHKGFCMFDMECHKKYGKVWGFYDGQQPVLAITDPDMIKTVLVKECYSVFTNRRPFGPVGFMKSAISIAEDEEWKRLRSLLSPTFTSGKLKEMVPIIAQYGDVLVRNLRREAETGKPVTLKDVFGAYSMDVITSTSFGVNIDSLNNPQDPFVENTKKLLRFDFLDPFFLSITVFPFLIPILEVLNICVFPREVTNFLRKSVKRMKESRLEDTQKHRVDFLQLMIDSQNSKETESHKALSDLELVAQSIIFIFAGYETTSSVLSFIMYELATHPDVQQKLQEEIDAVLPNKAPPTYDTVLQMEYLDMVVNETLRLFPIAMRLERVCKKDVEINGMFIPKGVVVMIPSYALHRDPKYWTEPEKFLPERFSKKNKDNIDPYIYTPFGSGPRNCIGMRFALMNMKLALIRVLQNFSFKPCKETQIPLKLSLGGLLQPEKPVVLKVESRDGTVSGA

[5] = test system: cytochrome P450 (CYP) isoforms (any of those tested); assay: CYP inhibition, isoforms tested (summary); type: in vitro ADME; details: any of the CYP isoforms tested
Plasma protein binding [6] = type: in vitro ADME; details: rat, read-out: Plasma protein binding (% bound)
in vitro [7] = type: in vitro ADME; details: mouse, plasma
CYP2C19 = CYP2C19 (Homo sapiens, UniProt P33261); assay: CYP inhibition; type: in vitro ADME; details: read-out: CYP inhibition IC50, CYP 2C19
Sequence of CYP2C19 (P33261 whole entry, species assumed): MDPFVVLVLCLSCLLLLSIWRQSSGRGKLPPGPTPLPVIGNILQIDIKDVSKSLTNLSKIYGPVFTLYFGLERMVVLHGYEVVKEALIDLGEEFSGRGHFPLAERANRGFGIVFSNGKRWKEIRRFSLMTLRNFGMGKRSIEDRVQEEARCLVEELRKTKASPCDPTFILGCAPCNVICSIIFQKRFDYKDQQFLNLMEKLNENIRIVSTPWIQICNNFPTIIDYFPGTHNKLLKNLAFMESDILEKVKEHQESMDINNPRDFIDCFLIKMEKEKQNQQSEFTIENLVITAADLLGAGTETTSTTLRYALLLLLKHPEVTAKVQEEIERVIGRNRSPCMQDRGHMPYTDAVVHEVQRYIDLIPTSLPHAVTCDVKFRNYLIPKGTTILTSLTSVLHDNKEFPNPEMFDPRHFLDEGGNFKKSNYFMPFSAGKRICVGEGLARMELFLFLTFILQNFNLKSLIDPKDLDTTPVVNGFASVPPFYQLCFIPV

Microsomal stability [8] = type: in vitro ADME, mouse; details: MLM, Test Conc. 10 µM
Plasma protein binding [9] = type: in vitro ADME; details: dog, read-out: Plasma protein binding (% bound)
[10] = test system: Dd2 DDD107498 (PfeEF2 Y186N); assay: microbe, parasite or virus in culture; type: cell-based; details: Plasmodium falciparum
Plasma protein binding [11] = type: in vitro ADME; details: human
in vitro [12] = type: in vitro ADME; details: dog, plasma
CYP1A2 = CYP1A2 (Homo sapiens, UniProt P05177); assay: CYP inhibition; type: in vitro ADME
Sequence of CYP1A2 (P05177 whole entry, species assumed): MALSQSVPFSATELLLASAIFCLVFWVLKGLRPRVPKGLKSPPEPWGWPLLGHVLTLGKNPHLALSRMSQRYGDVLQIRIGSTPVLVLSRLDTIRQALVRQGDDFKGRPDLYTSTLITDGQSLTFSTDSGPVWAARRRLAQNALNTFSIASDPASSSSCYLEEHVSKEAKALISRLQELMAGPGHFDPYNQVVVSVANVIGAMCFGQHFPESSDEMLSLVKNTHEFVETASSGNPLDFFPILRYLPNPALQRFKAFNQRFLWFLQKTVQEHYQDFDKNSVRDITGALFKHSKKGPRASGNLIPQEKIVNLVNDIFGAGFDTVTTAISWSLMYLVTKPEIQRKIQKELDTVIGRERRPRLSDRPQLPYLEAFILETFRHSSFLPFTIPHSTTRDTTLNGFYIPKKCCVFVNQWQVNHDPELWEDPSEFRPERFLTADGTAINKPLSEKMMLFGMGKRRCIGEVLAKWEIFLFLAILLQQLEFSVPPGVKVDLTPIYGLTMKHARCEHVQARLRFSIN

CYP 2D6 = CYP 2D6 (Homo sapiens, UniProt P10635); assay: CYP inhibition; type: in vitro ADME
Sequence of CYP 2D6 (P10635 whole entry, species assumed): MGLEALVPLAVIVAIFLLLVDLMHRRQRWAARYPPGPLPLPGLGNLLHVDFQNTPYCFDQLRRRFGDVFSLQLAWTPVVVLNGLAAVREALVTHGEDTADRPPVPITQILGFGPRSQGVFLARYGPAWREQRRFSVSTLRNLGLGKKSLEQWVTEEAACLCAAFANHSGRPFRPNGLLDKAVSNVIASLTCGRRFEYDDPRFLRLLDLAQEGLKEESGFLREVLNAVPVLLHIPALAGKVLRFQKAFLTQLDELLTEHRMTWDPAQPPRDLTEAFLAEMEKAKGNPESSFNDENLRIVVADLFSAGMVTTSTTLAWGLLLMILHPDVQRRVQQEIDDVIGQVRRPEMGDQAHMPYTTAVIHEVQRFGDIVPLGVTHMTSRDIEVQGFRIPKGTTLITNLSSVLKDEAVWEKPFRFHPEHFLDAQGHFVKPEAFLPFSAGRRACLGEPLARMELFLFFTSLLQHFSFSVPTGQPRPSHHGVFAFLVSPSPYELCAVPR

Microsomal stability [13] = type: in vitro ADME, human; details: HLM, Test Conc. 10 µM
HepG2 = assay: Cytotoxicity; type: cell-based
PfHDAC1 = molecular target: T1, PfHDAC1 (Plasmodium falciparum, UniProt Q7K6A1); assay: PfHDAC1 fluorescent activity assay; type: biochemical
T1 construct: His-tag; FLAG-tag; purchased BPS Bioscience
T1 sequence (Q7K6A1 1-449): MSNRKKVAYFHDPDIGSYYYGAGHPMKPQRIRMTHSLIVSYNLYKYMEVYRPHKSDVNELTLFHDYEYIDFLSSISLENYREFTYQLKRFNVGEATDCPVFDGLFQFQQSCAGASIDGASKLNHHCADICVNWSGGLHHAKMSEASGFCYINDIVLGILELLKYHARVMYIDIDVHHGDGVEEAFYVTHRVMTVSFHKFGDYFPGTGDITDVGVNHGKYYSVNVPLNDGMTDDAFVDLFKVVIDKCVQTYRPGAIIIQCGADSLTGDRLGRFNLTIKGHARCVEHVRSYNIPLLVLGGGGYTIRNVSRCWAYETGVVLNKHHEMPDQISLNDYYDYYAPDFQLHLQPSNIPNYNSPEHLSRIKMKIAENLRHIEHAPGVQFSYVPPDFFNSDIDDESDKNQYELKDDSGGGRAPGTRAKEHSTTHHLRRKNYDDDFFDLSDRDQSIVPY

hERG = hERG (Homo sapiens, UniProt Q12809); assay: hERG binding
Sequence of hERG (Q12809 whole entry): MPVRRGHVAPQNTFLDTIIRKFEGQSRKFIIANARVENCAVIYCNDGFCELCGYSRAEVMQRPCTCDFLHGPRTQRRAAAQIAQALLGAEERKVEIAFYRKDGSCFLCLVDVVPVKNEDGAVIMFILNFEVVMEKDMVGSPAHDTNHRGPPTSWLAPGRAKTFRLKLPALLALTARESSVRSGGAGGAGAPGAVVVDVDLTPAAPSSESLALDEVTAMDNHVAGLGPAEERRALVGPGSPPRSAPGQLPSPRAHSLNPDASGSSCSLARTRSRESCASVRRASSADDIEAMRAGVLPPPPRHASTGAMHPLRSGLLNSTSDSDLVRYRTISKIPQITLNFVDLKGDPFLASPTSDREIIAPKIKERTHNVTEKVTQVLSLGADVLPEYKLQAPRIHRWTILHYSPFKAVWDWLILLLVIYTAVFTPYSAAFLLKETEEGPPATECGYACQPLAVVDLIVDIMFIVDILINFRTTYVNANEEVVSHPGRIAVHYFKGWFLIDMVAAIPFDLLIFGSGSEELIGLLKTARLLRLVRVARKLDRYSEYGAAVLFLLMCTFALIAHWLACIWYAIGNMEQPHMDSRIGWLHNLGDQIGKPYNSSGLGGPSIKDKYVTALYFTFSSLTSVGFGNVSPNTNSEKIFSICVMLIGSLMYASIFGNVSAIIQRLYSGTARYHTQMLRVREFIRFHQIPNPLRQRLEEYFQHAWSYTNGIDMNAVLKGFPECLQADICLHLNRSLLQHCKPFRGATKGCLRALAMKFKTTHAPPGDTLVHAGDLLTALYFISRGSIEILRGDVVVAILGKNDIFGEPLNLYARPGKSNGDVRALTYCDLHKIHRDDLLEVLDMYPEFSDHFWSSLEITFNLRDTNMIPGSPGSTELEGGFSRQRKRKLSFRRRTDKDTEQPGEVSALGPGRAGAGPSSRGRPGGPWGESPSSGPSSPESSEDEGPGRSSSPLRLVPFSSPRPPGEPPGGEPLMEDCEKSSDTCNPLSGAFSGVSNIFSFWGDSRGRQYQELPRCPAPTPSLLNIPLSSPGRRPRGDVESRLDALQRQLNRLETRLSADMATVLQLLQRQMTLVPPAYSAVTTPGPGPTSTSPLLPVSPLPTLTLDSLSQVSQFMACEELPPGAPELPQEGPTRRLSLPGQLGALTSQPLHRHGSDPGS

Sequence of CYP2C9 (P11712 whole entry, species assumed): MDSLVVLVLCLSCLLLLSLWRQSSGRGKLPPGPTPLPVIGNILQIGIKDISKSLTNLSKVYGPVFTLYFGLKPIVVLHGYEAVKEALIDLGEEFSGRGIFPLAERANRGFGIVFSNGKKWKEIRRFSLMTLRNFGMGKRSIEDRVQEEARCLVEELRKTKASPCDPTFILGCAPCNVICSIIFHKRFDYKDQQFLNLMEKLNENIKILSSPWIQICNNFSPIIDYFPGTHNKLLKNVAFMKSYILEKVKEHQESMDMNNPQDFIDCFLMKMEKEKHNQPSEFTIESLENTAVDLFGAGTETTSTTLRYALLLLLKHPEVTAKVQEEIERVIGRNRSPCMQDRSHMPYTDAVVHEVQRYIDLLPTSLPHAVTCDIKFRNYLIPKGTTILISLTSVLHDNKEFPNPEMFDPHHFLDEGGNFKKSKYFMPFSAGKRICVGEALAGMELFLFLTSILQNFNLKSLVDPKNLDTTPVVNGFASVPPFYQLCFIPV

Structure (SMILES): O=C(NO)c1ccc(Cn2cc(-c3ccc(CN4CCCC4)cc3)nn2)cc1 [FNDR-20123]
- IC50 (CYP2C9): > 60 µM
- AUC(0-t) [1]: 1340 ng·h/mL
- Cmax [1]: 460 ng/mL
- Tmax [1]: 1 h
- In vitro killing profile compared with standard drugs [2]: better than atovaquone and comparable to pyrimethamine
- IC50 (Dd2): 0.0175 µM
- remaining at 4 h (in vitro [3]): 88.9%
- Reduction of parasitaemia ([4]; dosed orally and subcutaneously): reduce parasitaemia significantly
- Parasitaemia after 4 days of administration ([4]; 50 mg/kg bw): 0.12%
- Parasitaemia after 4 days of administration ([4]; 100 mg/kg bw): 0.19%
- Parasitaemia ([4]; 10 mg/kg bw for 4 days): 6.5%
- Parasitaemia ([4]; 50 mg/kg bw for 4 days): 2.57%
- IC50 (CYP 3A4): 27 µM
- IC50 [5]: > 25 µM
- fraction unbound (Plasma protein binding [6]): 0.581
- remaining at 4 h (in vitro [7]): 89.2%
- IC50 (CYP2C19): > 60 µM
- Microsomal stability (% remaining at 120 min) (Microsomal stability [8]): 76.15%
- remaining at 2 h, 10 µM (Microsomal stability [8]; mouse, liver microsomes, read-out: Microsomal stability (% remaining at 120 min)): > 75%
- fraction unbound (Plasma protein binding [9]): > 0.8
- IC50 [10]: 0.0209 µM
- Plasma protein binding (% bound) (Plasma protein binding [11]): 57.30%
- fraction unbound (Plasma protein binding [11]; plasma, Human, read-out: Plasma protein binding (% bound) (converted)): 0.43
- remaining at 4 h (in vitro [12]): 97.7%
- IC50 (CYP1A2): > 60 µM
- IC50 (CYP 2D6): 28 µM
- Microsomal stability (% remaining at 120 min) (Microsomal stability [13]): 85.31%
- remaining at 2 h, 10 µM (Microsomal stability [13]; human, liver microsomes, read-out: Microsomal stability (% remaining at 120 min)): > 75%
- Cytotoxicity to HepG-2 cell line (HepG2): negligible cytotoxicity
- Cytotoxicity HepG2 (% @ 100 µM) (HepG2; 100 µM): 12.6%
- IC50 (PfHDAC1): 0.031 µM
- IC50 (hERG): > 100 µM
